Assay results: patent US20230346810A1, “ENDOGENOUS STABILIZATION OF CANNABINOIDS” (Abstrax Tech Inc., priority 2022, published 2023)

What was measured:
[1] = UV-Visible spectroscopy of color purity of THC oils; type: physicochemical; conditions: 5% by weight CBDA added, versus sample without CBDA; FIG. 8
Description: The color purities of THC oils with and without acidic cannabinoids were measured using a LabTech BlueStar A UV-Vis Spectrophotometer. The data collection range was from 250 nm to 1100 nm at a scan rate of 3 nm per second. About 1 g of sample was added to scintillation vial followed by addition of 5 mL of ethanol. The solution was agitated for 2 min in order to fully dissolve the oil and transferred to a UV-Vis quartz cuvette. An ethanol background was collected prior to running the samples to reduce solvent.

[2] = Color change / oxidation of cannabinoid oils on exposure to air (visual); type: physicochemical; conditions: about 5% CBDA by weight added, homogenized under mild heat (about 70° C.)

Row | SMILES | visible absorption after CBDA addition (UV-Visible spectra) [1] | color of solution after CBDA addition [2]
1 | CCCCCc1cc(O)c2c(c1)OC(C)(C)[C@@H]1CC=C(C)C[C@@H]21 [Sample D8-THC, Δ8-tetrahydrocannabinol] | less visible absorption | 
2 | CCCCCc1cc(O)c2c(c1)OC(C)(C)[C@@H]1CCC(C)=C[C@@H]21 [Sample D9-THC, Δ^9-tetrahydrocannabinol] |  | yellow solution with minimal discoloration
